Results from US9765092B2, “Tricyclic piperidine compounds” (ACTELION PHARMACEUTICALS LTD, priority 2013, dated 2017).

Target: human TPH1 (Homo sapiens (Human), UniProt P17752)
Assay: Biochemical in vitro assay using fluorescence readout (TPH1 inhibition)
[1] = human TPH1, fluorescence readout
[2] = full length human TPH1, 40 μM L-tryptophan, 15° C., 60 minutes, fluorescence at 540 nm, mean if determined several times

Sequence of human TPH1 (P17752 whole entry): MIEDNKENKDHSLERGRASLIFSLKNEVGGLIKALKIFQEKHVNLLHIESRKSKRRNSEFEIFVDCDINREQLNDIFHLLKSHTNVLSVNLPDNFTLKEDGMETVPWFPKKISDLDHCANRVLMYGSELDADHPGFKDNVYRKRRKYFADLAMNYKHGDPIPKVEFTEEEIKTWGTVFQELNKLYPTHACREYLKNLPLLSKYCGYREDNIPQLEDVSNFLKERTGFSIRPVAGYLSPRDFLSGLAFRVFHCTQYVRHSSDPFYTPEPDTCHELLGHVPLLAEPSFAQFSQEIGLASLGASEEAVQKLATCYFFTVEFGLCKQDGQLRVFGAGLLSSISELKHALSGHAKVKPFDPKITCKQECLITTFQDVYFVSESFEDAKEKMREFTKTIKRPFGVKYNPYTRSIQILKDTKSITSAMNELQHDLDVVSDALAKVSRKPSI

Work on `CS(=O)(=O)Nc1ccc(OCC(=O)N2CCc3nc4scnn4c3C2c2ccc(Cl)cc2F)c(Cl)n1` (stereo not drawn) [Example 2.1.1, N-(6-chloro-5-(2-(5-(4-chloro-2-fluorophenyl)-7,8-dihydro-[1,3,4]thiadiazolo[2′,3′:2,3]imidazo[4,5-c]-pyridin-6(5H)-yl)-2-oxoethoxy)pyridin-2-yl)methanesulfonamide] yielded an IC50 [1] of 11 nM.

Work on `CCOC(=O)c1ncc(C2c3c(nc4sc(C)nn34)CCN2C(=O)COc2ccc(C(F)(F)F)cc2Cl)s1` (stereo not drawn) [Example 1.30.2, Ethyl 5-(6-(2-(2-chloro-4-(trifluoromethyl)phenoxy)acetyl)-2-methyl-5,6,7,8-tetrahydro-[1,3,4]thiadiazolo [2′,3′:2,3]imidazo[4,5-c]pyridin-5-yl)thiazole-2-carboxylate] yielded an IC50 [1] of 442 nM.

`CNC(=O)c1cc(F)c(C2c3c(nc4sc(C)nn34)CCN2C(=O)COc2ccc(N3CC(F)(F)C3)nc2Cl)s1` (stereo not drawn) [Example 1.25.5, 5-(6-(2-((2-chloro-6-(3,3-difluoroazetidin-1-yl)pyridin-3-yl)oxy)acetyl)-2-methyl-5,6,7,8-tetrahydro-[1,3,4]thiadiazolo [2′,3′:2,3]imidazo[4,5-c]pyridin-5-yl)-4-fluoro-N-methylthiophene-2-carboxamide] showed an IC50 [1] of 7 nM.

For `Cc1nn2c3c(nc2s1)CCN(C(=O)COc1ccc(N2CCOCC2)nc1Cl)C3c1cc(C(=O)O)cs1` (stereo not drawn) [Example 1.46.1, 5-(6-(2-((2-chloro-6-morpholinopyridin-3-yl)oxy)acetyl)-2-methyl-5,6,7,8-tetrahydro-[1,3,4]thiadiazolo[2′,3′:2,3]imidazo[4,5-c]pyridin-5-yl)thiophene-3-carboxylic acid], the IC50 [2] was 18 nM.

With `CCc1nc(C)ccc1OCC(=O)N1CCc2nc3sc(C)nn3c2C1c1cnc(C2CC2)nc1` (stereo not drawn) [Example 1.10.1, 1-(5-(2-cyclopropylpyrimidin-5-yl)-2-methyl-7,8-dihydro-[1,3,4]thiadiazolo[2′,3′:2,3]imidazo[4,5-c]pyridin-6(5H)-yl)-2-((2-ethyl-6-methylpyridin-3-yl)oxy)ethanone] the IC50 [1] was 187 nM.

For `CCn1nc(C(=O)OC)cc1OCC(=O)N1CCc2nc3sc(C)nn3c2C1c1sccc1F` (stereo not drawn) [Example 1.23.12, Methyl 1-ethyl-5-(2-(5-(3-fluorothiophen-2-yl)-2-methyl-7,8-dihydro-[1,3,4]thiadiazolo[2′,3′:2,3]imidazo[4,5-c]pyridin-6(5H)-yl)-2-oxoethoxy)-1H-pyrazole-3-carboxylate], the IC50 [1] was 265 nM.

`Cc1nn2c3c(nc2s1)CCN(C(=O)COc1cccnc1C(F)(F)F)C3c1ccc(C2CC2)cc1F` (stereo not drawn) [Example 1.6.13, 1-(5-(4-cyclopropyl-2-fluorophenyl)-2-methyl-7,8-dihydro-[1,3,4]thiadiazolo[2′,3′:2,3]imidazo[4,5-c]pyridin-6(5H)-yl)-2-((2-(trifluoromethyl)pyridin-3-yl)oxy)ethanone] gave an IC50 [1] of 4 nM.

For `Cc1nn2c3c(nc2s1)CCN(C(=O)COc1ccc(C#N)cc1Cl)C3c1sc(C(=O)N(C)C)cc1F` (stereo not drawn) [Example 1.24.8, 5-(6-(2-(2-chloro-4-cyanophenoxy)acetyl)-2-methyl-5,6,7,8-tetrahydro-[1,3,4]thiadiazolo[2′,3′:2,3]imidazo[4,5-c]pyridin-5-yl)-4-fluoro-N,N-dimethylthiophene-2-carboxamide], the IC50 [1] was 14 nM.

`Cc1cnc(C2c3c(nc4sc(C)nn34)CCN2C(=O)COc2ccc(C(=O)N(C)C)nc2Cl)c(F)c1` (stereo not drawn) [Example 1.31.7, 6-chloro-5-(2-(5-(3-fluoro-5-methylpyridin-2-yl)-2-methyl-7,8-dihydro-[1,3,4]thiadiazolo[2′,3′:2,3]imidazo[4,5-c]pyridin-6(5H)-yl)-2-oxoethoxy)-N,N-dimethylpicolinamide] gave an IC50 [1] of 6 nM.

`CCc1ncccc1OCC(=O)N1CCc2nc3sc(C)nn3c2C1c1cc(CN(C)C)cs1` (stereo not drawn) [Example 1.8.2, 1-(5-(4-((dimethylamino)methyl)thiophen-2-yl)-2-methyl-7,8-dihydro-[1,3,4]thiadiazolo[2′,3′:2,3]imidazo[4,5-c]pyridin-6(5H)-yl)-2-((2-ethylpyridin-3-yl)oxy)ethanone] was tested, and the IC50 [1] was 140 nM.

Work on `CS(=O)(=O)Nc1ccc(OCC(=O)N2CCc3nc4sc(C5CC5)nn4c3C2c2ccc(Cl)cc2F)c(Cl)n1` (stereo not drawn) [Example 4.1.1, N-(6-chloro-5-(2-(5-(4-chloro-2-fluorophenyl)-2-cyclopropyl-7,8-dihydro-[1,3,4]thiadiazolo-[2′,3′:2,3]imidazo[4,5-c]pyridin-6(5H)-yl)-2-oxoethoxy)pyridin-2-yl)methanesulfonamide] yielded an IC50 [1] of 16 nM.

In the case of `CCc1nc(C(=O)NC2CC2)ccc1OCC(=O)N1CCc2nc3sc(C(F)F)nn3c2C1c1sc(C)nc1C` (stereo not drawn) [Example 8.3.1, N-cyclopropyl-5-(2-(2-(difluoromethyl)-5-(2,4-dimethylthiazol-5-yl)-7,8-dihydro-[1,3,4]thiadiazolo[2′,3′:2,3]imidazo[4,5-c]pyridin-6(5H)-yl)-2-oxoethoxy)-6-ethylpicolinamide], the IC50 [1] is reported as 11 nM.

`CCc1nc(C)ccc1OCC(=O)N1CCc2nc3sc(C)nn3c2C1c1ccc(C2CC2)cc1F` (stereo not drawn) [Example 1.6.8, 1-(5-(4-cyclopropyl-2-fluorophenyl)-2-methyl-7,8-dihydro-[1,3,4]thiadiazolo[2′,3′:2,3]imidazo[4,5-c]pyridin-6(5H)-yl)-2-((2-ethyl-6-methylpyridin-3-yl)oxy)ethanone] showed an IC50 [1] of 23 nM.

Molecule `Cc1nn2c3c(nc2s1)CCN(C(=O)COc1cccnc1Cl)C3c1cnc(N(C)C)s1` (stereo not drawn) [Example 1.22.7, 2-((2-Chloropyridin-3-yl)oxy)-1-(5-(2-(dimethylamino)thiazol-5-yl)-2-methyl-7,8-dihydro[1,3,4]thiadiazolo[2′,3′:2,3]imidazo[4,5-c]pyridin-6(5H)-yl)ethanone] has an IC50 [2] of 81 nM.

`Cc1nn2c3c(nc2s1)CCN(C(=O)COc1ccc(N(C)C)nc1Cl)C3c1cnc(N2CCOCC2)s1` (stereo not drawn) [Example 1.7.4, 2-((2-chloro-6-(dimethylamino)pyridin-3-yl)oxy)-1-(2-methyl-5-(2-morpholinothiazol-5-yl)-7,8-dihydro-[1,3,4]thiadiazolo[2′,3′:2,3]imidazo[4,5-c]pyridin-6(5H)-yl)ethanone] was tested, and the IC50 [1] was 408 nM.

For `COc1ccc(C2c3c(nc4sc(C)nn34)CCN2C(=O)COc2ccc(C(=O)NC3CC3)nc2Cl)c(F)c1` (stereo not drawn) [Example 1.3.3, 6-chloro-N-cyclopropyl-5-(2-(5-(2-fluoro-4-methoxyphenyl)-2-methyl-7,8-dihydro-[1,3,4]thiadiazolo[2′,3′:2,3]imidazo[4,5-c]pyridin-6(5H)-yl)-2-oxoethoxy)picolinamide], the IC50 [1] was 10 nM.

Work on `CCOC(=O)c1csc(C2c3c(nc4sc(C)nn34)CCN2C(=O)COc2ccc(C(F)(F)F)nc2Cl)n1` (stereo not drawn) [Example 1.27.2, Ethyl 2-(6-(2-((2-chloro-6-(trifluoromethyl)pyridin-3-yl)oxy)acetyl)-2-methyl-5,6,7,8-tetrahydro-[1,3,4]thiadiazolo [2′,3′:2,3]imidazo[4,5-c]pyridin-5-yl)thiazole-4-carboxylate] yielded an IC50 [1] of 500 nM.

`O=C(COc1ccc(C(F)(F)F)cc1Cl)N1CCc2nc3sccn3c2C1c1cnn(-c2ccccc2)c1` (stereo not drawn) [Example 6.13.8, 2-(2-chloro-4-(trifluoromethyl)phenoxy)-1-(5-(1-phenyl-1H-pyrazol-4-yl)-7,8-dihydrothiazolo[2′,3′:2,3]-imidazo[4,5-c]pyridin-6(5H)-yl)ethanone] was tested, and the IC50 [1] was 80 nM.
